The target in test [1] is T1, HCV NS3 helicase (NS3h) (Hepacivirus hominis (Hepatitis C virus), UniProt P29846). As to the kind of experiment: HCV helicase unwinding assay, DNA substrate. Format: biochemical.
In test [2] the target is T1, HCV NS3 helicase (NS3h). As to the kind of experiment: HCV helicase unwinding assay, RNA substrate. In kind it is biochemical.
A further test deals with DENV helicase (Dengue virus type 2, UniProt P29990). As to the kind of experiment: DENV helicase inhibition. Format: biochemical.
Test [3] has as its system EcoRI-digested pT7-7 plasmid. As to the kind of experiment: Gel shift assay with plasmid. Format: binding. For orientation: A gel shift assay detects complexes by their altered migration in electrophoresis.
The next test deals with JEV helicase (Japanese encephalitis virus, UniProt P27395). Nature of the test: JEV helicase inhibition. In kind it is biochemical.

Each structure is given as a SMILES string. pIC50: −log10 of the molar value. Bounds are passed on as bounds.

T1 sequence (P29846 1192-1657): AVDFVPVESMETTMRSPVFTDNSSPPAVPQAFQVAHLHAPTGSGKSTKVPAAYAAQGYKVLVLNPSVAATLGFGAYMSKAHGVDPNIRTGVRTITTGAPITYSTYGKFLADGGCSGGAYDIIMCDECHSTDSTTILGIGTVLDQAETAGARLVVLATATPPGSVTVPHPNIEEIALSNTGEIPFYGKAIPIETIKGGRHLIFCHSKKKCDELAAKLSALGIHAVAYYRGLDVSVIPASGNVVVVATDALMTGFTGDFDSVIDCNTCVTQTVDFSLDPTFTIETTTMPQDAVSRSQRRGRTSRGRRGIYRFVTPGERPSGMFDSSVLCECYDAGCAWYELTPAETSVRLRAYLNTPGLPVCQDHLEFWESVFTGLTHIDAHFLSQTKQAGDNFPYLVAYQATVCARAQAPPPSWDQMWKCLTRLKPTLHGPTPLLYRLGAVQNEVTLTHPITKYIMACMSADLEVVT
Sequence of JEV helicase (P27395 1505-2123): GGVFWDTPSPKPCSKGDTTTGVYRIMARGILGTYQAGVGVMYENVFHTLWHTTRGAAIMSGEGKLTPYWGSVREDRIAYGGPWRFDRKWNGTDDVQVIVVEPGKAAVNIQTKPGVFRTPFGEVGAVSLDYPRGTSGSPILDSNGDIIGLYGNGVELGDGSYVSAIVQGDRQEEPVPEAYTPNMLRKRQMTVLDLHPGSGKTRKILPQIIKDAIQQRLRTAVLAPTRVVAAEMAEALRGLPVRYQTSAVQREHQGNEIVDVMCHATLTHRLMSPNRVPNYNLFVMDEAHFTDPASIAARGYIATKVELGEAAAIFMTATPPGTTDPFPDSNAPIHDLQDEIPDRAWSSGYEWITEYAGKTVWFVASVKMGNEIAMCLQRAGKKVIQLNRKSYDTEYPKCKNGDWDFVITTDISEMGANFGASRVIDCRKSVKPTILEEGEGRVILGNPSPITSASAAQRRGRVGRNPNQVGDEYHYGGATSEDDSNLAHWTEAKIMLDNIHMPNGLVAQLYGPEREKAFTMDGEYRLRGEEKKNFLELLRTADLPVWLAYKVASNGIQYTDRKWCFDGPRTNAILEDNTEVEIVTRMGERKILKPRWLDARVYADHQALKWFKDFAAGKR
Sequence of DENV helicase (P29990 1476-2093): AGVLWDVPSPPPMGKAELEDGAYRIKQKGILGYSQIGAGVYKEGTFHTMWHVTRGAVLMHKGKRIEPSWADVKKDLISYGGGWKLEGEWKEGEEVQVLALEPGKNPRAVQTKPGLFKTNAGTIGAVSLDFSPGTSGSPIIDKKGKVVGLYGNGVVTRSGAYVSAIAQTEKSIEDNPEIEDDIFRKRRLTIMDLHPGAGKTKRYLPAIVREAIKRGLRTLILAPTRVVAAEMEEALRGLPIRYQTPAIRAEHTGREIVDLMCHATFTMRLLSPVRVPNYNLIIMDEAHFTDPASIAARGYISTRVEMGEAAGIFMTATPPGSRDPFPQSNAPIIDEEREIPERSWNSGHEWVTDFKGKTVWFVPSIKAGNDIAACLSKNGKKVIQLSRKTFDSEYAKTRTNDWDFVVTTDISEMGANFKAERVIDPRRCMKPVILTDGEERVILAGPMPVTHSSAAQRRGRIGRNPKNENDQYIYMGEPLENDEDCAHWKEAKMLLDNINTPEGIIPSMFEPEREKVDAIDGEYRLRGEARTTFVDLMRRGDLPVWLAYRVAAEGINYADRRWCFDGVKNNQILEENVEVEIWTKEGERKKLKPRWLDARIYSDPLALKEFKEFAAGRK

As for `COC(=O)c1cccc2oc(-c3ccccc3O)nc12` [Compound 1], the pIC50 against HCV NS3 helicase (NS3h) [1] and against HCV NS3 helicase (NS3h) [2] was below 2.74 throughout.
Take `O=C(O)c1cccc2oc(-c3ccccc3O)nc12` [Compound 2]: the pIC50 at HCV NS3 helicase (NS3h) [1] and against HCV NS3 helicase (NS3h) [2] was below 2.74 throughout.
As for `CNC(=O)c1cccc2oc(-c3ccccc3O)nc12` [Compound 3], the pIC50 against HCV NS3 helicase (NS3h) [1] and at HCV NS3 helicase (NS3h) [2] was below 2.74 throughout.
Consider `COC(=O)c1cccc2oc(-c3ccc4c(OCc5ccccc5)cccc4c3O)nc12` [Compound 5], for which the “DENV helicase inhibition, in words” value at DENV helicase was “no inhibition”. Besides, the “Effect on gel mobility of plasmid” value in test [3] was “do not affect”. Besides, at JEV helicase, the “JEV helicase inhibition, in words” value was “no inhibition”.
As to `COC(=O)c1cccc2oc(-c3ccc4ccc(OCc5ccccc5)cc4c3O)nc12` [Compound 6], at DENV helicase, the “DENV helicase inhibition, in words” value is recorded as “no inhibition”. Also, the “Effect on gel mobility of plasmid” value in test [3] is listed as “do not affect”. Also, the “JEV helicase inhibition, in words” value at JEV helicase is “no inhibition”.
On to `COC(=O)c1cccc2oc(-c3cccc4oc(-c5ccccc5O)nc34)nc12` [UK-1], for which the “HCV helicase inhibition, in words” value is recorded as “weak inhibition” on HCV NS3 helicase (NS3h) [1] (DNA substrate) and “no inhibition” at HCV NS3 helicase (NS3h) [2] (RNA substrate). Further, at HCV NS3 helicase (NS3h) [2], the negative-log IC50 (pIC50) was below 2.92.

Usually pIC50 stands for −log10 of the IC50, conventionally taken in molar units. Higher therefore signals a low IC50.

The record behind these values is PMC6136245 (Bioorganic & medicinal chemistry letters, 2013).
